# According to PubChem BioAssay (NCI):
#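 Growth conditions: 96-well plates. Treatment: test compound, 48 hours, 5 concentrations. Analysis: linear interpolation between bracketing concentrations; unreached endpoints set to highest concentration. GI50 is the concentration that inhibits growth by half. TGI marks complete inhibition of growth.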
# Columns and labels:
# Assay in all cases: DTP human tumour cell line panel, 48 h
# [1] = system: 786-0 renal
# [2] = system: A498 renal
# [3] = system: A549 NSCLC
# [4] = system: ACHN renal
# [5] = system: BT-549 breast
# [6] = system: CAKI-1 renal
# [7] = system: CCRF-CEM leukemia
# [8] = system: COLO 205 colon
# [9] = system: DU-145 prostate
# [10] = system: EKVX NSCLC
# [11] = system: HCC-2998 colon
# [12] = system: HCT-116 colon
# [13] = system: HCT-15 colon
# [14] = system: HL-60(TB) leukemia
# [15] = system: HOP-62 NSCLC
# [16] = system: HOP-92 NSCLC
# [17] = system: HS 578T breast
# [18] = system: HT29 colon
# [19] = system: IGROV1 ovarian
# [20] = system: K-562 leukemia
# [21] = system: KM12 colon
# [22] = system: LOX IMVI melanoma
# [23] = system: M14 melanoma
# [24] = system: MALME-3M melanoma
# [25] = system: MCF7 breast
# [26] = system: MDA-MB-231 breast
# [27] = system: MDA-MB-435
# [28] = system: MDA-N
# [29] = system: MOLT-4 leukemia
# [30] = system: NCI-H226 lung
# [31] = system: NCI-H23 lung
# [32] = system: NCI-H460 lung
# [33] = system: NCI-H522 lung
# [34] = system: NCI/ADR-RES ovarian
# [35] = system: OVCAR-3 ovarian
# [36] = system: OVCAR-4 ovarian
# [37] = system: OVCAR-5 ovarian
# [38] = system: OVCAR-8 ovarian
# [39] = system: PC-3 prostate
# [40] = system: RPMI-8226 leukemia
# [41] = system: RXF 393 renal
# [42] = system: SF-268 CNS
# [43] = system: SF-295 CNS
# [44] = system: SF-539 CNS
# [45] = system: SK-MEL-2 melanoma
# [46] = system: SK-MEL-28 melanoma
# [47] = system: SK-MEL-5 melanoma
# [48] = system: SK-OV-3 ovarian
# [49] = system: SN12C renal
# [50] = system: SNB-19 CNS
# [51] = system: SNB-75 CNS
# [52] = system: SR leukemia
# [53] = system: SW-620 colon
# [54] = system: T-47D breast
# [55] = system: TK-10 renal
# [56] = system: U251 CNS
# [57] = system: UACC-257 melanoma
# [58] = system: UACC-62 melanoma
# [59] = system: UO-31 renal
compound,measurement,setting,value
Nc1cccc(C2CCCc3c2[nH]c2ccccc32)c1 (centres undefined),TGI,[1],41.5 µM
same,TGI,[2],28.9 µM
same,TGI,[3],47.7 µM
same,TGI,[4],76.8 µM
same,TGI,[5],41.9 µM
same,TGI,[6],69.2 µM
same,TGI,[7],57 µM
same,TGI,[8],43.6 µM
same,TGI,[9],> 100 µM
same,TGI,[10],67.5 µM
same,TGI,[11],61 µM
same,TGI,[12],34 µM
same,TGI,[13],40.5 µM
same,TGI,[14],43 µM
same,TGI,[15],> 100 µM
same,TGI,[16],42.7 µM
same,TGI,[17],43.7 µM
same,TGI,[18],33.4 µM
same,TGI,[19],39.8 µM
same,TGI,[20],48.7 µM
same,TGI,[21],49.8 µM
same,TGI,[22],25.4 µM
same,TGI,[23],62.4 µM
same,TGI,[24],48.3 µM
same,TGI,[25],54.7 µM
same,TGI,[26],37 µM
same,TGI,[27],41.1 µM
same,TGI,[28],37.4 µM
same,TGI,[29],54.1 µM
same,TGI,[30],47.9 µM
same,TGI,[31],46.4 µM
same,TGI,[32],73.6 µM
same,TGI,[33],34.1 µM
same,TGI,[34],38.8 µM
same,TGI,[35],> 100 µM
same,TGI,[36],> 100 µM
same,TGI,[37],45.8 µM
same,TGI,[38],34.8 µM
same,TGI,[39],53.9 µM
same,TGI,[40],56.6 µM
same,TGI,[41],39.3 µM
same,TGI,[42],56.4 µM
same,TGI,[43],64.5 µM
same,TGI,[44],40.6 µM
same,TGI,[45],37.8 µM
same,TGI,[46],> 100 µM
same,TGI,[47],33.1 µM
same,TGI,[48],70.4 µM
same,TGI,[49],32.7 µM
same,TGI,[50],72.7 µM
same,TGI,[51],36.1 µM
same,TGI,[52],31.4 µM
same,TGI,[53],42.6 µM
same,TGI,[54],54.7 µM
same,TGI,[55],> 100 µM
same,TGI,[56],28.9 µM
same,TGI,[57],69.1 µM
same,TGI,[58],31.1 µM
same,TGI,[59],> 100 µM
COc1ccccc1-c1cc(=O)c2c(C)ccnc2[nH]1,GI50,[1],59.9 µM
same,TGI,[1],> 100 µM
same,TGI,[2],85.3 µM
same,TGI,[3],> 100 µM
same,TGI,[4],> 100 µM
same,TGI,[5],44.3 µM
same,TGI,[6],> 100 µM
same,TGI,[7],> 100 µM
same,TGI,[8],69.3 µM
same,TGI,[9],> 100 µM
same,TGI,[10],> 100 µM
same,TGI,[11],> 100 µM
same,GI50,[12],7.58 µM
same,TGI,[12],46.3 µM
same,TGI,[13],> 100 µM
same,GI50,[14],21 µM
same,TGI,[14],83.7 µM
same,TGI,[15],> 100 µM
same,TGI,[16],> 100 µM
same,TGI,[17],61.4 µM
same,TGI,[18],> 100 µM
same,TGI,[19],> 100 µM
same,TGI,[20],> 100 µM
same,TGI,[21],> 100 µM
same,TGI,[22],> 100 µM
same,TGI,[23],> 100 µM
same,TGI,[24],> 100 µM
same,TGI,[25],> 100 µM
same,TGI,[26],> 100 µM
same,GI50,[27],6.52 µM
same,TGI,[27],30.5 µM
same,GI50,[28],8.41 µM
same,TGI,[28],33.1 µM
same,TGI,[29],> 100 µM
same,TGI,[30],98.9 µM
same,TGI,[31],> 100 µM
same,GI50,[32],23.9 µM
same,TGI,[32],> 100 µM
same,TGI,[33],43.7 µM
same,TGI,[34],53.2 µM
same,GI50,[35],12.8 µM
same,TGI,[35],43.1 µM
same,TGI,[36],> 100 µM
same,TGI,[37],> 100 µM
same,TGI,[38],> 100 µM
same,GI50,[39],21 µM
same,TGI,[39],> 100 µM
same,TGI,[40],> 100 µM
same,TGI,[41],> 100 µM
same,TGI,[42],> 100 µM
same,GI50,[43],23.7 µM
same,TGI,[43],80.1 µM
same,TGI,[44],> 100 µM
same,TGI,[45],> 100 µM
same,TGI,[46],> 100 µM
same,GI50,[47],22.6 µM
same,TGI,[47],96.6 µM
same,TGI,[48],> 100 µM
same,TGI,[49],> 100 µM
same,TGI,[50],> 100 µM
same,TGI,[51],56.8 µM
same,TGI,[52],64.2 µM
same,TGI,[53],40.7 µM
same,TGI,[54],> 100 µM
same,TGI,[55],> 100 µM
same,GI50,[56],35.3 µM
same,TGI,[56],> 100 µM
same,TGI,[57],> 100 µM
same,TGI,[58],> 100 µM
same,TGI,[59],> 100 µM
